Consider one compound from publication PMC7035787 (Molecular pharmaceutics, 2019).

The structures appear in SMILES notation.

Data set [1] in a line: Pulmonary retention in isolated perfused rat lung. The data set is classed as in vitro ADME. The note with it: rat, 3 mg/kg, 2 h.
The test system of data set [2] is lungs from sham and PAH rats. The data set is described as follows: Pulmonary retention in isolated perfused rat lung. The data set is classed as in vitro ADME. Conditions: IT route, sham and PAH lungs.
A short description of data set [3]: in vivo. The note with it: male, Sprague-Dawley, rat, 3 mg/kg.

By AUC(0-inf) is commonly meant total exposure, with the tail of the curve extrapolated. The low end stands for less exposure, the high end for more exposure. One may read the Cmax as the maximum level reached in the sampled fluid or tissue. Take `O=S(=O)(c1cccc2cnccc12)N1CCCNCC1` [plain fasudil, fasudil]: the recovery at 2 h in data set [1] (IPRL tubes (circuitry), other: intratracheal (IT) via the tracheal cannula, pH 7.4, recovery dose (%) IPRL tubes, IT route, PAH lungs, by subtraction from dose) was determined as 16.6 ± 7.7%; in data set [1] (IPRL tubes (circuitry), other: intratracheal (IT) via the tracheal cannula, pH 7.4, recovery dose (%) IPRL tubes, IT route, Sham lungs, by subtraction from dose) it was 7.4 ± 1%; in data set [1] (lung homogenate, other: intratracheal (IT) via the tracheal cannula, pH 7.4, recovery dose (%) lung, IT route, PAH lungs, fasudil 3 mg/kg) it was 70.1 ± 7.3%; in data set [1] (lung homogenate, other: intratracheal (IT) via the tracheal cannula, pH 7.4, recovery dose (%) lung, IT route, Sham lungs, fasudil 3 mg/kg), 71.8 ± 2%; in data set [1] (lung homogenate, other: via the cannulated pulmonary artery, mimicking IV, pH 7.4, recovery dose (%) lung, IV-mimicking route, PAH lungs, fasudil 3 mg/kg), 49.6 ± 6.2%; in data set [1] (lung homogenate, other: via the cannulated pulmonary artery, mimicking IV, pH 7.4, recovery dose (%) lung, IV-mimicking route, Sham lungs, fasudil 3 mg/kg), 34.7 ± 3.2%. In addition, the recovery at 2 h in data set [1] (perfusate, other: intratracheal (IT) via the tracheal cannula, pH 7.4, recovery dose (%) perfusate, IT route, PAH lungs, fasudil 3 mg/kg) turned out to be 13.3 ± 2.6%; in data set [1] (perfusate, other: intratracheal (IT) via the tracheal cannula, pH 7.4, recovery dose (%) perfusate, IT route, Sham lungs, fasudil 3 mg/kg), 20.8 ± 2.7%; in data set [1] (perfusate, other: via the cannulated pulmonary artery, mimicking IV, pH 7.4, recovery dose (%) perfusate, IV-mimicking route, PAH lungs, fasudil 3 mg/kg), 39.1 ± 3.9%; in data set [1] (perfusate, other: via the cannulated pulmonary artery, mimicking IV, pH 7.4, recovery dose (%) perfusate, IV-mimicking route, Sham lungs, fasudil 3 mg/kg) it was 56.5 ± 5.3%. In addition, in data set [2], the “drug concentration in the perfusate” value is listed as “about 10 μg/mL”. The area under the curve AUC(0-inf) in data set [3] and in data set [3] (iv) was 5967 ± 25.9 ng·h/mL in each case. Besides, the highest concentration (Cmax) in data set [3] (inhaled or intranasal) was 3040 ± 635 ng/mL.
